Measured values: ChEMBL document CHEMBL4673349, “Trichodestruxins A-D: Cytotoxic Cyclodepsipeptides from the Endophytic Fungus Trichoderma harzianum” (J Nat Prod, 2020)
Structures can show the parent of a compound that is named as a salt.

Legend:
Assay type in all cases: functional, cell-based
A549 = test: Cytotoxicity against human A549 cells assessed as reduction in cell viability after 72 hrs by MTT assay; conditions: A549, 72 h
HT-29 = test: Cytotoxicity against human HT-29 cells assessed as reduction in cell viability after 72 hrs by MTT assay; conditions: HT-29, 72 h
P388 = test: Cytotoxicity against mouse p388 cells assessed as reduction in cell viability after 72 hrs by MTT assay; conditions: P388, 72 h

Question: What does the source list for `C=CC[C@H]1OC(=O)CCNC(=O)[C@H](C)N(C)C(=O)[C@H](C(C)C)N(C)C(=O)[C@H](C(C)C)NC(=O)[C@@H]2[C@@H](C)CCN2C1=O`?
Answer: IC50 (A549): 15.6 µM; IC50 (HT-29): 7.8 µM; IC50 (P388): 17 µM

Question: Which results are given for `CC(C)[C@@H]1NC(=O)[C@@H]2[C@@H](C)CCN2C(=O)[C@@H](C[C@@H](O)CO)OC(=O)CCNC(=O)[C@H](C)N(C)C(=O)[C@H](C(C)C)N(C)C1=O`?
Answer: IC50 (A549): 8.8 µM; IC50 (HT-29): 16.7 µM; IC50 (P388): 19.1 µM

Question: With `CC(C)C[C@H]1OC(=O)CCNC(=O)[C@H](C)N(C)C(=O)[C@H](C(C)C)N(C)C(=O)[C@H](C(C)C)NC(=O)[C@@H]2[C@@H](C)CCN2C1=O` as the compound, how does the IC50 (A549) read?
Answer: 10.3 µM

Question: What about the IC50 (HT-29) of the same compound?
Answer: 3.4 µM

Question: And the IC50 (P388)?
Answer: 8.4 µM

Question: How did the IC50 (A549) turn out when `CC(C)C[C@H]1OC(=O)CCNC(=O)[C@H](C)NC(=O)[C@H](C(C)C)N(C)C(=O)[C@H](C(C)C)NC(=O)[C@@H]2[C@@H](C)CCN2C1=O` was run?
Answer: 17.5 µM

Question: What about the IC50 (HT-29) of the same compound?
Answer: > 20 µM

Question: What about the IC50 (P388) of the same compound?
Answer: > 20 µM

Question: What does the source list for `COc1cccc2c1C(=O)c1c(O)c3c(c(O)c1C2=O)C[C@@](O)(C(=O)CO)C[C@@H]3O[C@H]1C[C@H](N)[C@H](O)[C@H](C)O1` [DOXORUBICIN HYDROCHLORIDE]?
Answer: IC50 (A549): 2.3 µM; IC50 (HT-29): 1.8 µM; IC50 (P388): 0.3 µM
